SMILES strings stand for the structures.

The values that follow come from patent publication US6855513B1 (priority 1999, dated 2005).

The subject of test [1] is P. aeruginosa lasI mutant biofilm. Conditions: flow-through chamber; resistance to 0.2% sodium dodecyl sulfate; cited from earlier work.
The test system of test [2] is lasB-lacZ chromosomal fusion. Nature of the test: Acyl-HSL response of lasB-lacZ chromosomal fusion in P. aeruginosa PAO-MW1. The format is cell-based, Pseudomonas aeruginosa. Conditions: late response. The method, then: E. coli and P. aeruginosa were routinely grown in Luria-Bertani (LB) broth or LB agar (Sambrook, et al. (1989) Molecular Cloning: a Laboratory Manual. (Cold Spring Harbor Laboratory, Cold Spring Harbor, N.Y.)), supplemented with antimicrobial agents when necessary. The antimicrobial agents were used at the following concentrations: HgCl2, 15 μg/ml in agar and 7.5 μg/ml in broth; nalidixic acid 20 μg/ml; carbenicillin, 300 μg/ml; tetracycline, 50 μg/ml for P. aeruginosa and 20 μg/ml for E. coli; and gentamicin, 100 μg/ml for P. aeruginosa and 15 μg/ml for E. coli. Synthetic acyl-HSL concentrations were 2 μM for 3OC12-HSL and 5 μM for C4-HSL, and 5-bromo4-chloro-3-indolyl-β-D-galactopyranoside (X-Gal) was used at 50 μg/ml.
A mutant strain, P. aeruginosa PAO-MW 10, which contains a lacZ reporter in the chromosomal lasB gene was constructed by introduction of pMW300 into PAO-MW1 by triparental mating as described above. Exconjugants resistant to gentamicin and sensitive to chloramphenicol were selected as potential recombinants.
Patterns of Acyl-HSL Induction of β-galactosidase Activity in qsc Mutants. The pattern of β-galactosidase expression was examined in response to acyl-HSLs in each of 47 qsc mutants identified in the initial screen. […] Growth was monitored as OD at 600 nm and β-galactosidase activity was measured in 0.1 ml samples taken at 0, 2, 5, and 9 hours after inoculation.

Take `CCCCCCCCCC(=O)CC(=O)N[C@H]1CCOC1=O` [3OC12-HSL, N-(3-oxododecanoyl) homoserine lactone]: the “Biofilm phenotype after adding signal back to lasI mutant cells” value in test [1] is listed as “wild type phenotype was restored”. Further, the “Stimulation of lasB-lacZ fusion over background” value in test [2] was 3 fold.
